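Values below derive from 48-hour exposures of cells grown in 96-well plates, with endpoints linearly interpolated between the two concentrations bracketing the appropriate inhibition level. Here, GI50 denotes the concentration required for 50% inhibition of growth.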 Activity calls are given as the source filed them. Cut-off read from the data, not from the text of the source: active = GI50 up to about 1.1 µM and inactive = higher.
What was measured:
Assay in all cases: DTP human tumour cell line panel, 48 h
SF-295 = test system: SF-295
MDA-N = test system: MDA-N
A549 = test system: A549
MDA-MB-231 = test system: MDA-MB-231
HOP-92 = test system: HOP-92
SNB-75 = test system: SNB-75
A498 = test system: A498
HCT-116 = test system: HCT-116
U-251 = test system: U-251
OVCAR-8 = test system: OVCAR-8
M14 = test system: M14
HT-29 = test system: HT-29
OVCAR-4 = test system: OVCAR-4
Hs-578T = test system: Hs-578T
IGROV-1 = test system: IGROV-1
OVCAR-5 = test system: OVCAR-5
SK-MEL-2 = test system: SK-MEL-2
RXF 393 = test system: RXF 393
SR = test system: SR
NCI/ADR-RES = test system: NCI/ADR-RES
OVCAR-3 = test system: OVCAR-3
Malme-3M = test system: Malme-3M
LOX IMVI = test system: LOX IMVI
PC-3 = test system: PC-3
T47D = test system: T47D
786-0 = test system: 786-0
UACC-257 = test system: UACC-257
SNB-19 = test system: SNB-19
RPMI-8226 = test system: RPMI-8226
HCT-15 = test system: HCT-15
NCI-H226 = test system: NCI-H226
MCF7 = test system: MCF7
SK-MEL-5 = test system: SK-MEL-5
HL-60 = test system: HL-60
TK-10 = test system: TK-10
COLO 205 = test system: COLO 205
CAKI-1 = test system: CAKI-1
SN12C = test system: SN12C
SF-268 = test system: SF-268
DU-145 = test system: DU-145
HOP-62 = test system: HOP-62
SK-OV-3 = test system: SK-OV-3
UO-31 = test system: UO-31
SK-MEL-28 = test system: SK-MEL-28
ACHN = test system: ACHN
BT-549 = test system: BT-549
MOLT-4 = test system: MOLT-4
NCI-H522 = test system: NCI-H522
SW-620 = test system: SW-620
K562 = test system: K562
HCC 2998 = test system: HCC 2998
EKVX = test system: EKVX
MDA-MB-435 = test system: MDA-MB-435
NCI-H23 = test system: NCI-H23
SF-539 = test system: SF-539
NCI-H460 = test system: NCI-H460

Cc1csc(CP(=O)(OC(C)C)OC(C)C)n1
GI50 (SF-295): > 100 µM (inactive)
GI50 (MDA-N): > 100 µM (inactive)
GI50 (A549): > 100 µM (inactive)
GI50 (MDA-MB-231): > 100 µM (inactive)
GI50 (HOP-92): > 100 µM (inactive)
GI50 (SNB-75): > 100 µM (inactive)
GI50 (A498): > 100 µM (inactive)
GI50 (HCT-116): > 100 µM (inactive)
GI50 (U-251): > 100 µM (inactive)
GI50 (OVCAR-8): > 100 µM (inactive)
GI50 (M14): > 100 µM (inactive)
GI50 (HT-29): > 100 µM (inactive)
GI50 (OVCAR-4): > 100 µM (inactive)
GI50 (Hs-578T): > 100 µM (inactive)
GI50 (IGROV-1): > 100 µM (inactive)
GI50 (OVCAR-5): > 100 µM (inactive)
GI50 (SK-MEL-2): > 100 µM (inactive)
GI50 (RXF 393): > 100 µM (inactive)
GI50 (SR): > 100 µM (inactive)
GI50 (NCI/ADR-RES): > 100 µM (inactive)
GI50 (OVCAR-3): > 100 µM (inactive)
GI50 (Malme-3M): > 100 µM (inactive)
GI50 (LOX IMVI): > 100 µM (inactive)
GI50 (PC-3): > 100 µM (inactive)
GI50 (T47D): > 100 µM (inactive)
GI50 (786-0): > 100 µM (inactive)
GI50 (UACC-257): > 100 µM (inactive)
GI50 (SNB-19): > 100 µM (inactive)
GI50 (RPMI-8226): > 100 µM (inactive)
GI50 (HCT-15): > 100 µM
GI50 (NCI-H226): > 100 µM (inactive)
GI50 (MCF7): > 100 µM (inactive)
GI50 (SK-MEL-5): > 100 µM (inactive)
GI50 (HL-60): > 100 µM (inactive)
GI50 (TK-10): > 100 µM (inactive)
GI50 (COLO 205): > 100 µM (inactive)
GI50 (CAKI-1): > 100 µM (inactive)
GI50 (SN12C): > 100 µM (inactive)
GI50 (SF-268): > 100 µM (inactive)
GI50 (DU-145): > 100 µM (inactive)
GI50 (HOP-62): > 100 µM (inactive)
GI50 (SK-OV-3): > 100 µM (inactive)
GI50 (UO-31): 74 µM (inactive)
GI50 (SK-MEL-28): > 100 µM (inactive)
GI50 (ACHN): > 100 µM (inactive)
GI50 (BT-549): > 100 µM (inactive)
GI50 (MOLT-4): > 100 µM (inactive)
GI50 (NCI-H522): > 100 µM (inactive)
GI50 (SW-620): > 100 µM (inactive)
GI50 (K562): > 100 µM (inactive)
GI50 (HCC 2998): > 100 µM (inactive)
GI50 (EKVX): > 100 µM (inactive)
GI50 (MDA-MB-435): > 100 µM (inactive)
GI50 (NCI-H23): > 100 µM (inactive)
GI50 (SF-539): > 100 µM (inactive)
GI50 (NCI-H460): > 100 µM (inactive)
